From patent publication US8293774B2, “Optically active (R)-aryloxypropionic acid amides and herbicidal composition comprising same” (Kyung Nong Corporation, priority 2007, dated 2012)

What was measured:
[1] = system: Barnyard grass; assay: Weed control test, 4-leaf stage plants (Test Example 1, Table 8); assay type: in vivo, Echinoch crus-galli Beauv. var. caudata Kitagawa
From the text: Seeds of rice, wheat, soy bean, barley, corn, common sorgum, barnyard grass, large crabgrass, creek grass, green foxtail and fall panicum were placed in sandy loam in 600 cm^2 pots and covered with soil. […], 2,000 l/ha of an emulsion obtained by diluting with water a mixture of 1 part by weight of a test compound, 5 parts by weight of acetone and 1 part by weight of an emulsifying agent (Tween 80, Junsei) was applied to the surface of the foliage of the plants. The plant damage at 10 days and 20 days after the foliage treatment was visually evaluated from the level of 1 to 100% by comparison with the untreated control: […]

[2] = system: Rice; assay: as above; details: in vivo
Protocol: (§1) Seeds of rice, wheat, soy bean, barley, corn, common sorgum, barnyard grass, large crabgrass, creek grass, green foxtail and fall panicum were placed in sandy loam in 600 cm^2 pots and covered with soil. After keeping the pots in a greenhouse at 20 to 30° C. allowing growth of the plants to the 3-leaf stage of the barnyard grass, 2,000 l/ha of an emulsion obtained by diluting with water a mixture of 1 part by weight of a test compound, 5 parts by weight of acetone and 1 part by weight of an emulsifying agent (Tween 80, Junsei) was applied to the surface of the foliage of the plants. The plant damage at 10 days and 20 days after the foliage treatment was visually evaluated from the level of 1 to 100% by comparison with the untreated control: […]

[3] = system: ORYSA (Oryza sativa cv. Dongjin, rice); assay: Weed control test, foliage treatment (Test Example 1, Table 7); details: in vivo
Protocol: as §1

[4] = system: GLXMA (Glycine max(L.) MERR, soy bean); assay: as above; details: in vivo
Protocol: as §1

[5] = system: TRZAW (Tritium aestivum L., wheat); assay: as above; details: in vivo
Protocol: as §1

[6] = system: SETVIR (Setaria viridis (L.) Beauv, green foxtail); assay: as above; assay type: in vivo; details: Setaria viridis, foliar, read-out: Plant damage (herbicidal activity), visually evaluated, SETVIR; for pest or weed control at 25 g/ha: 0.025 kg/ha; for pest or weed control at 100 g/ha: 0.1 kg/ha; for pest or weed control at 200 g/ha: 0.2 kg/ha
Protocol: as §1

[7] = system: SORBI (Andropogon sorghum, common sorgum); assay: as above; assay type: in vivo; details: Sorghum bicolor, foliar, read-out: Plant damage (herbicidal activity), visually evaluated, SORBI; for pest or weed control at 25 g/ha: 0.025 kg/ha; for pest or weed control at 100 g/ha: 0.1 kg/ha; for pest or weed control at 200 g/ha: 0.2 kg/ha
Protocol: as §1

[8] = system: DIGSA (Digitaria Sanguinalis (L.) SCOP, large crabgrass); assay: as above; assay type: in vivo; details: Digitaria sanguinalis, foliar, read-out: Plant damage (herbicidal activity), visually evaluated, DIGSA; for pest or weed control at 25 g/ha: 0.025 kg/ha; for pest or weed control at 100 g/ha: 0.1 kg/ha; for pest or weed control at 200 g/ha: 0.2 kg/ha
Protocol: as §1

[9] = system: ARTHIS (Arthraxon hispidus (Thunb.) Makino, creek grass); assay: as above; assay type: in vivo; details: Arthraxon hispidus, foliar, read-out: Plant damage (herbicidal activity), visually evaluated, ARTHIS; for pest or weed control at 25 g/ha: 0.025 kg/ha; for pest or weed control at 100 g/ha: 0.1 kg/ha; for pest or weed control at 200 g/ha: 0.2 kg/ha
Protocol: as §1

[10] = system: ZEAMX (Zea mays L., corn); assay: as above; assay type: in vivo; details: Zea mays, foliar, read-out: Plant damage (herbicidal activity), visually evaluated, ZEAMX; for plant injury at 25 g/ha: 0.025 kg/ha; for plant injury at 100 g/ha: 0.1 kg/ha; for plant injury at 200 g/ha: 0.2 kg/ha
Protocol: as §1

[11] = system: PANDI (Panium dichotomiflorum Michx, fall panicum); assay: as above; assay type: in vivo; details: Panicum dichotomiflorum, foliar, read-out: Plant damage (herbicidal activity), visually evaluated, PANDI; for pest or weed control at 25 g/ha: 0.025 kg/ha; for pest or weed control at 100 g/ha: 0.1 kg/ha; for pest or weed control at 200 g/ha: 0.2 kg/ha
Protocol: as §1

[12] = system: ECHOG (Echinoch crus-galli Beauv. var. caudata Kitagawa, barnyard grass); assay: as above; assay type: in vivo; details: Echinochloa crus-galli, foliar, 3-leaf stage, read-out: Plant damage (herbicidal activity), visually evaluated, ECHOG; for pest or weed control at 25 g/ha: 0.025 kg/ha; for pest or weed control at 100 g/ha: 0.1 kg/ha; for pest or weed control at 200 g/ha: 0.2 kg/ha
Protocol: as §1

[13] = system: HORVU (Hordeum vulgare L., barley); assay: as above; details: in vivo
Protocol: as §1

Compound | Plant damage (herbicidal activity), visually evaluated, ORYSA [3] | Plant damage (herbicidal activity), visually evaluated, GLXMA [4] | Plant damage (herbicidal activity), visually evaluated, TRZAW [5] | pest or weed control at 25 g/ha [6] | pest or weed control at 100 g/ha [6] | pest or weed control at 200 g/ha [6] | pest or weed control at 25 g/ha [7] | pest or weed control at 100 g/ha [7] | pest or weed control at 200 g/ha [7] | pest or weed control at 25 g/ha [8] | pest or weed control at 100 g/ha [8] | pest or weed control at 200 g/ha [8] | pest or weed control at 25 g/ha [9] | pest or weed control at 100 g/ha [9] | pest or weed control at 200 g/ha [9] | plant injury at 25 g/ha [10] | plant injury at 100 g/ha [10] | plant injury at 200 g/ha [10] | pest or weed control at 25 g/ha [11] | pest or weed control at 100 g/ha [11] | also measured
C[C@@H](Oc1ccc(Oc2nc3ccc(Cl)cc3o2)cc1)C(=O)N(C)c1nc2ccccc2s1 [Example 6, (R)-2-[4-(6-chloro-2-benzoxazolyloxy)phenoxy]propionic acid-N-(2-benzothiazolyl)-N-methyl amide] | 0% | 0% | 0% | 0% | 20% | 50% | 10% | 50% | 90% | 0% | 20% | 70% | 0% | 20% | 50% | 0% | 10% | 90% | 0% | 20% | Plant damage (herbicidal activity), visually evaluated, Barnyard grass ([1]; 0.025 kg/ha): 0%; Plant damage (herbicidal activity), visually evaluated, Barnyard grass ([1]; 0.05 kg/ha): 0%; Plant damage (herbicidal activity), visually evaluated, Barnyard grass ([1]; 0.1 kg/ha): 10%; Plant damage (herbicidal activity), visually evaluated, Barnyard grass ([1]; 0.4 kg/ha): 30%; Plant damage (herbicidal activity), visually evaluated, Rice [2]: 0%; pest or weed control at 200 g/ha [11]: 70%; pest or weed control at 25 g/ha [12]: 0%; pest or weed control at 100 g/ha [12]: 20%; pest or weed control at 200 g/ha [12]: 70%
Cc1ccc(C=C(F)Oc2ccc(O[C@H](C)C(=O)Nc3ccccc3F)cc2)cc1 [Example 41, (R)-2-[4-(1-fluoro-2-(4-methylphenyl)vinyloxy)phenoxy]propionic acid-N-(2-fluorophenyl)amide] | 0% | 0% | 0% | 0% | 20% | 70% | 0% | 0% | 0% | 0% | 0% | 50% | 0% | 0% | 20% | 0% | 0% | 20% | 20% | 70% | Plant damage (herbicidal activity), visually evaluated, HORVU [13]: 0%; pest or weed control at 200 g/ha [11]: 70%; pest or weed control at 25 g/ha [12]: 0%; pest or weed control at 100 g/ha [12]: 0%; pest or weed control at 200 g/ha [12]: 20%
C[C@@H](Oc1ccc(C(F)=C(c2ccccc2)C(F)(F)F)cc1)C(=O)Nc1ccccc1F [Example 42, (R)-2-[4-(1,3,3,3-tetrafluoro-2-phenylprop-1-enyl)phenoxy]propionic acid-N-(2-fluorophenyl)amide] | 0% | 0% | 0% | 0% | 0% | 70% | 0% | 0% | 0% | 0% | 0% | 20% | 0% | 0% | 50% | 0% | 30% | 90% | 0% | 0% | Plant damage (herbicidal activity), visually evaluated, HORVU [13]: 0%; pest or weed control at 200 g/ha [11]: 70%; pest or weed control at 25 g/ha [12]: 0%; pest or weed control at 100 g/ha [12]: 20%; pest or weed control at 200 g/ha [12]: 20%
C[C@@H](Oc1ccc(C(F)=C(c2ccccc2)C(F)(F)F)cc1)C(=O)Nc1nc2cc(Cl)ccc2o1 [Example 55, (R)-2-[4-(1,3,3,3-tetrafluoro-2-phenylprop-1-enyl)phenoxy]propionic acid-N-(5-chloro-2-benzoxazolyl)amide] | 0% | 0% | 0% | 0% | 0% | 0% | 10% | 20% | 35% | 0% | 0% | 0% | 0% | 0% | 0% | 10% | 10% | 30% | 0% | 0% | Plant damage (herbicidal activity), visually evaluated, HORVU [13]: 0%; pest or weed control at 200 g/ha [11]: 0%; pest or weed control at 25 g/ha [12]: 0%; pest or weed control at 100 g/ha [12]: 0%; pest or weed control at 200 g/ha [12]: 0%
C[C@@H](Oc1ccc(OC(F)=Cc2ccc(Cl)cc2)cc1)C(=O)Nc1nc2cc(Cl)ccc2o1 [Example 56, (R)-2-[4-(1-fluoro-2-(4-chlorophenyl)vinyloxy)phenoxy]propionic acid-N-(5-chloro-2-benzoxazolyl)amide] | 0% | 0% | 0% | 0% | 0% | 20% | 0% | 20% | 20% | 0% | 20% | 90% | 0% | 0% | 10% | 10% | 90% | 90% | 0% | 0% | Plant damage (herbicidal activity), visually evaluated, HORVU [13]: 0%; pest or weed control at 200 g/ha [11]: 10%; pest or weed control at 25 g/ha [12]: 20%; pest or weed control at 100 g/ha [12]: 70%; pest or weed control at 200 g/ha [12]: 90%
